Here are results for 31 compounds from ChEMBL document CHEMBL1153123, “Antiplasmodial activity of piperazine sulfonamides” (Bioorg Med Chem Lett, 2010).

Assay [1] deals with Plasmodium falciparum. In words: Antiplasmodial activity against Plasmodium falciparum Dd2 in human O+ erythrocytes after 72 hrs by DAPI staining. It is filed as functional, organism-based. The following applies: Dd2, 72 h.
For assay [2], the system named is Plasmodium falciparum. As to the kind of experiment: Antiplasmodial activity against Plasmodium falciparum 3D7 in human O+ erythrocytes after 72 hrs by DAPI staining. The assay is classed as functional, organism-based. The conditions noted are these: 3D7, 72 h.

In the case of `O=[N+]([O-])c1ccc(S(=O)(=O)N2CCN(Cc3ccccc3)CC2)cc1`, the concentration for a half-maximal effect (EC50) – broadly, the midpoint of the concentration-response curve – with Plasmodium falciparum [1] is above 10000 nM.

As to `O=[N+]([O-])c1ccc(S(=O)(=O)N2CCN(C(=S)NCCc3ccccc3)CC2)cc1`, the EC50 in the assay on Plasmodium falciparum [1] came out at 211 nM. As to `O=[N+]([O-])c1ccc(S(=O)(=O)N2CCN(C(=S)NCC3CCCO3)CC2)cc1` (stereo not drawn), the results for the concentration for a half-maximal effect (EC50) in the assay on Plasmodium falciparum [2] and in the assay on Plasmodium falciparum [1] were 313 nM and 337 nM, respectively. For `O=S(=O)(c1ccc(Cl)cc1)N1CCN(C(=S)NCC2CCCO2)CC1` (stereo not drawn) the same measures were 667 nM and 860 nM. Regarding `COCCNC(=S)N1CCN(S(=O)(=O)c2ccc([N+](=O)[O-])cc2)CC1`, the EC50 with Plasmodium falciparum [2] stood at 310 nM; in the assay with Plasmodium falciparum [1] it was 354 nM. Taken in the same sequence, the figures for `O=S(=O)(c1ccc2c(c1)OCCO2)N1CCN(C(=S)NCc2ccccc2)CC1` were 6490 nM and above 10000 nM. For `O=C(NCc1ccco1)N1CCN(S(=O)(=O)c2ccc(Cl)cc2)CC1` the same measures were 2550 nM and 2300 nM.

Take `CS(=O)(=O)N1CCN(C(=S)NCc2ccco2)CC1`: the concentration for a half-maximal effect (EC50) in the assay on Plasmodium falciparum [2] and with Plasmodium falciparum [1] was above 10000 nM each time. As to `O=S(=O)(c1ccccc1F)N1CCN(C(=S)NCc2ccccc2)CC1`, the concentration giving a half-maximal response (EC50) in the assay on Plasmodium falciparum [2] worked out at 2410 nM; with Plasmodium falciparum [1] it was 3130 nM. Regarding `O=S(=O)(c1ccc(Cl)cc1)N1CCN(C(=S)NCc2ccc(Cl)cc2)CC1`, the EC50 with Plasmodium falciparum [1] worked out at 400 nM. This lies in the sub-micromolar range. As for `C/N=C(/SCc1ccccc1)N1CCN(S(=O)(=O)c2ccc([N+](=O)[O-])cc2)CC1`, the EC50 in the assay on Plasmodium falciparum [2] came out at 11400 nM; with Plasmodium falciparum [1] it was 13000 nM. In the case of `O=S(=O)(c1ccccc1)N1CCN(C(=S)NCc2ccccc2)CC1`, the half-maximal effective concentration (EC50) with Plasmodium falciparum [2] is 1860 nM; with Plasmodium falciparum [1] it was 1920 nM. Turning to `O=S(=O)(c1ccc(Br)cc1Cl)N1CCN(C(=S)NCc2ccccc2)CC1`, the figures for the EC50 in the assay with Plasmodium falciparum [2] and with Plasmodium falciparum [1] were 830 nM and 873 nM, respectively. For `O=C(NCc1ccco1)N1CCN(S(=O)(=O)c2ccc([N+](=O)[O-])cc2)CC1` the same measures were 6410 nM and 4480 nM. Taken in the same sequence, the figures for `O=[N+]([O-])c1ccc(S(=O)(=O)N2CCC(C(=S)NCc3ccccc3)CC2)cc1` were 6060 nM and 6190 nM. Taken in the same sequence, the figures for `CCOc1ccc(S(=O)(=O)N2CCN(C(=S)NCc3ccccc3)CC2)cc1` were 1230 nM and 1960 nM. In the case of `O=[N+]([O-])c1ccc(S(=O)(=O)N2CCN(C(=S)CCc3ccccc3)CC2)cc1`, the EC50 worked out at 1250 nM with Plasmodium falciparum [2] and 1690 nM in the assay on Plasmodium falciparum [1]. For `O=S(=O)(c1cccc(F)c1)N1CCN(C(=S)NCc2ccccc2)CC1` the same measures were 1470 nM and 1970 nM. Taken in the same sequence, the figures for `Cc1cc(Nc2ccccc2)nc(N2CCN(S(=O)(=O)c3ccc([N+](=O)[O-])cc3)CC2)n1` were 11100 nM and 10000 nM. As for `Cc1cc(NCc2ccccc2)nc(N2CCN(S(=O)(=O)c3ccc([N+](=O)[O-])cc3)CC2)n1`, the EC50 in the assay with Plasmodium falciparum [2] is 3970 nM; in the assay on Plasmodium falciparum [1], 5810 nM.

In the case of `O=[N+]([O-])c1ccc(S(=O)(=O)N2CCN(C/C=C/c3ccccc3)CC2)cc1`, in the assay with Plasmodium falciparum [1], the EC50 was 6050 nM. In other words, the single-digit micromolar range. Regarding `O=[N+]([O-])c1ccc(S(=O)(=O)N2CCN(C(=S)NCc3ccccc3)CC2)cc1`, the figures for the 50% effective concentration (EC50) in the assay with Plasmodium falciparum [2] and with Plasmodium falciparum [1] were 56 nM and 103 nM, respectively. Taken in the same sequence, the figures for `O=[N+]([O-])c1ccc(S(=O)(=O)N2CCN(C(=S)NCc3ccco3)CC2)cc1` were 64 nM and 117 nM. Taken in the same sequence, the figures for `O=C(NCc1ccccc1)C1CCN(S(=O)(=O)c2ccc([N+](=O)[O-])cc2)CC1` were 5950 nM and 3740 nM. For `N=C(NCc1ccccc1)N1CCN(S(=O)(=O)c2ccc([N+](=O)[O-])cc2)CC1` the same measures were above 25000 nM and above 25000 nM.

As for `O=C(CCc1ccccc1)N1CCN(S(=O)(=O)c2ccc([N+](=O)[O-])cc2)CC1`, the figures for the EC50 with Plasmodium falciparum [2] and in the assay on Plasmodium falciparum [1] were 13500 nM and 13600 nM, respectively. For `O=S(=O)(c1ccc(F)cc1)N1CCN(C(=S)NCc2ccccc2)CC1` the same measures were 447 nM and 492 nM.

For `CCNC(=S)N1CCN(S(=O)(=O)c2ccccc2C(F)(F)F)CC1`, the concentration for a half-maximal effect (EC50) with Plasmodium falciparum [2] and with Plasmodium falciparum [1] was above 10000 nM in each case. With `O=S(=O)(c1ccc(F)c(F)c1F)N1CCN(C(=S)NCc2ccccc2)CC1`, the figures for the concentration giving a half-maximal response (EC50) in the assay with Plasmodium falciparum [2] and with Plasmodium falciparum [1] were 1520 nM and 1610 nM, respectively. For `O=S(=O)(c1ccc(Cl)cc1)N1CCN(C(=S)NCc2ccco2)CC1` the same measures were 615 nM and 544 nM. Taken in the same sequence, the figures for `O=S(=O)(c1c(Cl)cc(Br)cc1Cl)N1CCN(C(=S)NCc2ccccc2)CC1` were 2670 nM and 4410 nM.
